Data taken from ChEMBL document CHEMBL5291721, “A preclinical secondary pharmacology resource illuminates target-adverse drug reaction associations of marketed drugs” (Nat Commun, 2023).

Tests used:
Estrogen receptor = target: T1, Estrogen receptor (Homo sapiens, UniProt P03372)
T1 sequence (P03372 whole entry): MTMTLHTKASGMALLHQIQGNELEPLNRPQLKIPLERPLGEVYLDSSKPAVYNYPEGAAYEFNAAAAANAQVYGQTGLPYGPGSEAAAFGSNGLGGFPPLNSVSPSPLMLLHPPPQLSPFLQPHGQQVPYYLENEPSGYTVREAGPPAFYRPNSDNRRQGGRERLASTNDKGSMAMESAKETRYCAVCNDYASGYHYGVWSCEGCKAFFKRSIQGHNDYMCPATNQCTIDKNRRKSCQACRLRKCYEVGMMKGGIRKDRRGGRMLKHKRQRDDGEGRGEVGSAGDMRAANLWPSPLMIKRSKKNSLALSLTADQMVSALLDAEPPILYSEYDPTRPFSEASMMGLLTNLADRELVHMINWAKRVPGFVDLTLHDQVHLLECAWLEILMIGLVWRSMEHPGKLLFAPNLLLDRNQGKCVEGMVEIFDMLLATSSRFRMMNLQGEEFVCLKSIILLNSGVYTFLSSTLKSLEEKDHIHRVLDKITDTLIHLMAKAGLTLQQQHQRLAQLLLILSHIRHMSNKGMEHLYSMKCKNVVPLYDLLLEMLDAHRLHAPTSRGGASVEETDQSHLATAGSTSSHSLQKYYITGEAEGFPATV

[1] = target: T2, Sodium-dependent serotonin transporter (Homo sapiens, UniProt P31645)
T2 sequence (P31645 whole entry): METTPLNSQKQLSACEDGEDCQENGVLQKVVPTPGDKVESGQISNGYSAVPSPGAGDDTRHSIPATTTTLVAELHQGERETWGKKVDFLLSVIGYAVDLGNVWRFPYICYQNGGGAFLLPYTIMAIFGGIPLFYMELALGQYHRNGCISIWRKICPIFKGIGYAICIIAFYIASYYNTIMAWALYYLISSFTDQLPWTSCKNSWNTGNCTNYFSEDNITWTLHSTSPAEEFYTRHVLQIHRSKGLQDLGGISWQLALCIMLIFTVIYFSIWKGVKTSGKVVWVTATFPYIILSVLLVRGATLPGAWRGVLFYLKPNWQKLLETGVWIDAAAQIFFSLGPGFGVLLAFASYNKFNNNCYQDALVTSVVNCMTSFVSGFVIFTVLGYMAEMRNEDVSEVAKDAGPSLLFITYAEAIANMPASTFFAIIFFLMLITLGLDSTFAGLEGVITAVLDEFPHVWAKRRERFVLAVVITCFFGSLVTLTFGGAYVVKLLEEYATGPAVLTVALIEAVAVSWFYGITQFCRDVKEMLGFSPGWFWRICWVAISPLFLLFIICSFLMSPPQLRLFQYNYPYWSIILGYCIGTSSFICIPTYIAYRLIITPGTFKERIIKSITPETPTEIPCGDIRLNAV

Mu-type opioid receptor = Mu-type opioid receptor (Homo sapiens, UniProt P35372)
Sequence of Mu-type opioid receptor (P35372 whole entry): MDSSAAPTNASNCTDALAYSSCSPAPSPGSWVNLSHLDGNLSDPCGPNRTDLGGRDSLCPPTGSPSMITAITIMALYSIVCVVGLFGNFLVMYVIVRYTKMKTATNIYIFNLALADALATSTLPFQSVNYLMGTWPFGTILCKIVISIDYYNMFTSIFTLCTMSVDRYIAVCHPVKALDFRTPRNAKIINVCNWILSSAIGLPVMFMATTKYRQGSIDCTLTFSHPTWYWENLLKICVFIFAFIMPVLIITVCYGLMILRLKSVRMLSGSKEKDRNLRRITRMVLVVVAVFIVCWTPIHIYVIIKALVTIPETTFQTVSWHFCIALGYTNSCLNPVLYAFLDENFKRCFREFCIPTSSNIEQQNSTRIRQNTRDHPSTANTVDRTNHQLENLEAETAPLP

Prothrombin = Prothrombin (Homo sapiens, UniProt P00734); format: functional
[2] = target: Beta-2 adrenergic receptor (Homo sapiens, UniProt P07550); format: functional, cell-based
Sequence of Beta-2 adrenergic receptor (P07550 whole entry): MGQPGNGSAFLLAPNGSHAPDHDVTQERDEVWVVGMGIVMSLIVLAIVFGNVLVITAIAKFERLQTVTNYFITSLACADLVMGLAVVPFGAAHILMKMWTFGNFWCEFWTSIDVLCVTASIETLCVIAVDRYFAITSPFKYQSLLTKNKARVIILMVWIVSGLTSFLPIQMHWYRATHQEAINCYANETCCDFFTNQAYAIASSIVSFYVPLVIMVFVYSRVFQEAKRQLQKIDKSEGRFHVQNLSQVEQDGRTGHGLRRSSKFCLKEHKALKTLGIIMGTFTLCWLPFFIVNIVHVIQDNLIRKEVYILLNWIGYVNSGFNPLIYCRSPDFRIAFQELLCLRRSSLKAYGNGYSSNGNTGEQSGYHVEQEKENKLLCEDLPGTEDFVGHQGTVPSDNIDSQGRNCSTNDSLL

[3] = target: T2, Sodium-dependent serotonin transporter; remark: listed apart in the source
[4] = target: Beta-1 adrenergic receptor (Homo sapiens, UniProt P08588); format: functional
Sequence of Beta-1 adrenergic receptor (P08588 whole entry): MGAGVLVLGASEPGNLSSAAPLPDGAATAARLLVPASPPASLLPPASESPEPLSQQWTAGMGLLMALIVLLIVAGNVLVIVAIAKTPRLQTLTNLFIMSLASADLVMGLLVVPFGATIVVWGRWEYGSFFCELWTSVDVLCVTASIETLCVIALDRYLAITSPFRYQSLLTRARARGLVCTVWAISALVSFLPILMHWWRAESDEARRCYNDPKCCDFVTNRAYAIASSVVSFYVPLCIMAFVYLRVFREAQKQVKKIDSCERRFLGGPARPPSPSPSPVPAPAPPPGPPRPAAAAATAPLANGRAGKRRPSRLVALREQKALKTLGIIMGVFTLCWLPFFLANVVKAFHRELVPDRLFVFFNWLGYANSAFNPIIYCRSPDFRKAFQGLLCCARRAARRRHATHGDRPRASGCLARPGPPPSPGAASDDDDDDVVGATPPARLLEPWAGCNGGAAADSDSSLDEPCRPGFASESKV

[5] = target: 5-hydroxytryptamine receptor 2A (Homo sapiens, UniProt P28223); format: functional, cell-based
Sequence of 5-hydroxytryptamine receptor 2A (P28223 whole entry): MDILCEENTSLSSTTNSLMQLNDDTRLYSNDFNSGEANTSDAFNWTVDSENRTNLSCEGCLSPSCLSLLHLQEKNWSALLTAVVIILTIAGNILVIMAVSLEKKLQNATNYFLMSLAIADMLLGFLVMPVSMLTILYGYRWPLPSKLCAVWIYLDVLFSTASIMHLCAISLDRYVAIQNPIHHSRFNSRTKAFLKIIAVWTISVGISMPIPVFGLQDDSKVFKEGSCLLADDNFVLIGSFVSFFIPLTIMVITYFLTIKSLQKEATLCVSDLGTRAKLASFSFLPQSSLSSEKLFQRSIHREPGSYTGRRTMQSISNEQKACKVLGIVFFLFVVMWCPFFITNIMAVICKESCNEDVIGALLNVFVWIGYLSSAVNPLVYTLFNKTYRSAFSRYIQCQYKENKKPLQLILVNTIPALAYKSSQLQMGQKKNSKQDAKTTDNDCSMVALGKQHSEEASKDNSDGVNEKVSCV

[6] = target: T3, Muscarinic acetylcholine receptor M2 (Homo sapiens, UniProt P08172); format: functional, cell-based
T3 sequence (P08172 whole entry): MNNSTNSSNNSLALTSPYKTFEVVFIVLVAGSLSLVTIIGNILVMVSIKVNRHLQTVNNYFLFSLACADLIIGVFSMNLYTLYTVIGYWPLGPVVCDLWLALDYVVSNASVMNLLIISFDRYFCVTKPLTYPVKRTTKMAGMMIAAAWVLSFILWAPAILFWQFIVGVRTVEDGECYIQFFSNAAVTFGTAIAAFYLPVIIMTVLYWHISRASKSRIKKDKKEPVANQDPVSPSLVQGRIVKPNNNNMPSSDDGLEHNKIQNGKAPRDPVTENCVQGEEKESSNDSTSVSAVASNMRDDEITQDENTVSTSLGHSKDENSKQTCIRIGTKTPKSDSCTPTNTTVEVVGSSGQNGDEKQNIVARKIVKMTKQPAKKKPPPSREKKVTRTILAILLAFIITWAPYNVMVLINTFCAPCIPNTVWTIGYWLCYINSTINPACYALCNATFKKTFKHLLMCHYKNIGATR

Adenosine receptor A3 = target: T4, Adenosine receptor A3 (Homo sapiens, UniProt P0DMS8)
T4 sequence (P0DMS8 whole entry): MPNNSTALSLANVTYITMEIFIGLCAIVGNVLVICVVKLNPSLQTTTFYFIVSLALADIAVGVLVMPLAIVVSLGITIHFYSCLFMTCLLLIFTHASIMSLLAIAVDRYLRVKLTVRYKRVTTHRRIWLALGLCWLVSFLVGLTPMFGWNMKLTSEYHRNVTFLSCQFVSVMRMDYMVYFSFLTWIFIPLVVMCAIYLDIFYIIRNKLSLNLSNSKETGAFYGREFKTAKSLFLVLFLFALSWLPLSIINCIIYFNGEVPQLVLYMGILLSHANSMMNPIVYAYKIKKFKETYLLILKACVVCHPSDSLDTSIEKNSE

[7] = target: Kappa-type opioid receptor (Homo sapiens, UniProt P41145)
Sequence of Kappa-type opioid receptor (P41145 whole entry): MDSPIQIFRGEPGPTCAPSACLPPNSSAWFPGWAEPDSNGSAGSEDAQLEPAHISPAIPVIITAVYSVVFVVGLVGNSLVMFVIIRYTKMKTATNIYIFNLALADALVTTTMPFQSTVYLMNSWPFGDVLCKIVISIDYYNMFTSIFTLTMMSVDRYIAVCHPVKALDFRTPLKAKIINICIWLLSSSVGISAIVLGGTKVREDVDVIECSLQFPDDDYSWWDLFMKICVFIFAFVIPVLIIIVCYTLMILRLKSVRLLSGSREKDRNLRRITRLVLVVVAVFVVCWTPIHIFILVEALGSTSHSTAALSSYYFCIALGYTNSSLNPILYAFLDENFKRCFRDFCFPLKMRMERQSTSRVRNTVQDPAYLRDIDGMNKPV

Measured: AC50
Also: assay procedure not described here.

C[C@H](Nc1ncnc2[nH]cnc12)c1cc2cccc(Cl)c2c(=O)n1-c1ccccc1 [DUVELISIB]
not listed: Adenosine receptor A3 | [7]
> 30 µM: all other assays above

O=C1[C@@H]2[C@H]3CC[C@H](C3)[C@@H]2C(=O)N1C[C@@H]1CCCC[C@H]1CN1CCN(c2nsc3ccccc23)CC1 [LURASIDONE]
6.36 µM: Adenosine receptor A3
> 30 µM: Estrogen receptor | [1] | Mu-type opioid receptor | Prothrombin | [2] | [3]

O=C(Cc1cccs1)N[C@@H]1C(=O)N2C(C(=O)[O-])=C(C[n+]3ccccc3)CS[C@H]12 [CEPHALORIDINE]
not listed: Mu-type opioid receptor | [3] | [4] | Adenosine receptor A3
> 30 µM: all other assays above
